Measurements as given in patent US7759345B2, “Antitumoral derivatives of ET-743” (priority 2001, dated 2010).
Where two headings read alike, the source gives them in different places.

How the values were obtained:
HT-29 = assay: Inhibition of cells growth by colorimetric assay (SRB), HT-29; type: cell-based; conditions: for GI50 / LC50 (concentration for 50% cell killing): Homo sapiens, HT-29, 48 h; for GI50: read-out: HT-29 GI50
Outline: (§1)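 Using sulforhodamine B, cell growth and viability are quantified after a 48 h drug exposure of cells maintained in RPMI 1640/10% FBS at 37 °C, 5% CO2. Concentrations span 10 to 10^−8 μg/ml; optical density is read at 490 nm.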

SW620 = assay: Inhibition of cells growth by colorimetric assay (SRB), SW620; type: cell-based; conditions: for LC50 / GI50: Homo sapiens; for LC50: SW-620, 48 h, read-out: SW-620 LC50; for GI50 / SW-620 TGI: 48 hours exposure; for GI50: read-out: SW-620 GI50
Protocol: (§2) 2°.—Inhibition of Cells Growth by Colorimetric Assay.
(§3) A colorimetric type of assay, using sulforhodamine B (SRB) reaction has been adapted for a quantitative measurement of cell growth and viability [following the technique described by Philip Skehan, et al. (1990), New colorimetric cytotoxicity assay for anticancer drug screening, J. Natl. Cancer Inst., 82:1107-1112]
(§4) This form of the assay employs 96 well cell culture microplates of 9 mm diameter (Faircloth, 1988; Mosmann, 1983). Most of the cell lines are obtained from American Type Culture Collection (ATCC) derived from different human cancer types.
(§5) Cells are maintained in RPMI 1640 10% FBS, supplemented with 0.1 g/l penicillin and 0.1 g/l streptomycin sulfate and then incubated at 37° C., 5% CO2 and 98% humidity. For the experiments, cells were harvested from subconfluent cultures using trypsin and resuspended in fresh medium before plating.
(§6) Cells are seeded in 96 well microtiter plates, at 5×10^3 cells per well in aliquots of 195 μl medium, and they are allowed to attach to the plate surface by growing in drug free medium for 18 hours. Afterward, samples are added in aliquots of 5 μl in a ranging from 10 to 10^−8 μg/ml, dissolved in DMSO/EtOH/PBS (0.5:0.5:99). After 48 hours exposure, the antitumor effect are measured by the SRB methodology: cells are fixed by adding 50 μl of cold 50% (wt/vol) trichloroacetic acid (TCA) and incubating for 60 minutes at 4° C. Plates are washed with deionized water and dried. One hundred μl of SRB solution (0.4% wt/vol in 1% acetic acid) is added to each microtiter well and incubated for 10 minutes at room temperature. Unbound SRB is removed by washing with 1% acetic acid. Plates are air dried and bound stain is solubilized with Tris buffer. Optical densities are read on a automated spectrophotometric plate reader at a single wavelength of 490 nm.
(§7) The values for mean+/−SD of data from triplicate wells are calculated. Some parameters for cellular responses can be calculated: GI=growth inhibition, TGI=total growth inhibition (cytostatic effect) and LC=cell killing (cytotoxic effect).
(§8) Obtained results may predict the usefulness of a certain drug as a potential cancer treatment. For this technique, compounds which show GI50 values smaller than 10 μg/ml are selected to continue with further studies. GI50's data allow to predict that not only could a drug be cystostatic, but also it could have a potential in terms of tumor reduction.

MCF-7 = assay: Inhibition of cells growth by colorimetric assay (SRB), MCF-7; type: cell-based; conditions: for CC50 / GI50: Homo sapiens; for CC50: MCF7, 48 h, read-out: MCF LC50; for GI50: MCF7, read-out: MCF GI50; for GI50 / MCF TGI: 48 hours exposure
Protocol: as §2, §3, §4, §5, §6, §7, §8

MDA-MB-231 = assay: Inhibition of cells growth by colorimetric assay (SRB), MDA-MB-231; type: cell-based; conditions: for CC50 / GI50: Homo sapiens; for CC50: MDA-MB-231, 48 h, read-out: MB-231 LC50; for GI50: MDA-MB-231, read-out: MB-231 GI50; for GI50 / MB-231 TGI: 48 hours exposure
Protocol: as §2, §3, §4, §5, §6, §7, §8

A-498 = assay: Inhibition of cells growth by colorimetric assay (SRB), A-498; type: cell-based; conditions: for A-498 TGI / GI50: 48 hours exposure; for LC50 / GI50: Homo sapiens; for LC50: A498, 48 h, read-out: A-498 LC50; for GI50: A498, read-out: A-498 GI50
Protocol: as §2, §3, §4, §5, §6, §7, §8

SK-MEL-28 = assay: Inhibition of cells growth by colorimetric assay (SRB), SK-MEL-28; type: cell-based; conditions: for GI50 / CC50: Homo sapiens, SK-MEL-28, 48 h; for GI50: read-out: MEL-28 GI50
Outline: as §1

DU-145 = assay: Inhibition of cells growth by colorimetric assay (SRB), DU-145; type: cell-based; conditions: for GI50 / CC50: Homo sapiens, DU-145, 48 h; for GI50: read-out: DU-145 GI50
Outline: as §1

A-549 = assay: Inhibition of cells growth by colorimetric assay (SRB), A-549; type: cell-based; conditions: for GI50 / LC50 (concentration for 50% cell killing): Homo sapiens, A549, 48 h; for GI50: read-out: A-549 GI50
Outline: as §1

Excerpt for Heart: (§9) Toxicity was asssessed by the methods reported in Toxicology in Vitro, 15 (2001) 571-577, J. Luber Narod et al.: “Evaluation of the use of in vitro methodolodies as tools for screening new compounds for potential in vivo toxicity”.
Excerpt for Kidney: as §9
Excerpt for Liver: as §9
Excerpt for Myelo: as §9
Excerpt for Skeletal: as §9

COc1cc2c(cc1O)CCN[C@]21CS[C@@H]2c3c(OC(C)=O)c(C)c4c(c3[C@H](COC1=O)N1C2[C@H]2c3c(cc(C)c(OC)c3OC(=O)OC(C)(C)C)C[C@@H]([C@@H]1O)N2C)OCO4 (some centres unmarked) [Compound 97]
HT-29 TGI (HT-29; HT-29, SRB, 48 hours exposure): 2.32E-09
GI50 (HT-29): 0.928 nM
LC50 (concentration for 50% cell killing) (HT-29; read-out: HT-29 LC50, HT-29, SRB, 48 hours exposure): 9.28 nM
Toxicity Data Myelo (Myelo): 1.77E-08
LC50 (SW620): 9.28 nM
GI50 (SW620; SW-620, SRB): 0.58 nM
SW-620 TGI (SW620; SW-620, SRB): 2.32E-09
CC50 (MCF-7): 11.6 nM
GI50 (MCF-7; MCF, SRB): 1.16 nM
MCF TGI (MCF-7; MCF, SRB): 3.48E-09
Toxicity Data Skeletal (Skeletal): 4.62E-09
CC50 (MDA-MB-231): 34.8 nM
GI50 (MDA-MB-231; MB-231, SRB): 0.348 nM
MB-231 TGI (MDA-MB-231; MB-231, SRB): 6.96E-10
A-498 TGI (A-498; A-498, SRB): 2.32E-09
LC50 (A-498): 9.28 nM
GI50 (A-498; A-498, SRB): 0.58 nM
Toxicity Data Heart (Heart): 9.63E-08
GI50 (SK-MEL-28; MEL-28, SRB, 48 hours exposure): 0.348 nM
CC50 (SK-MEL-28; read-out: MEL-28 LC50, MEL-28, SRB, 48 hours exposure): 3.48 nM
MEL-28 TGI (SK-MEL-28; MEL-28, SRB, 48 hours exposure): 9.28E-10
DU-145 TGI (DU-145; DU-145, SRB, 48 hours exposure): 3.48E-10
GI50 (DU-145; DU-145, SRB, 48 hours exposure): 0.232 nM
CC50 (DU-145; read-out: DU-145 LC50, DU-145, SRB, 48 hours exposure): 0.928 nM
A-549 TGI (A-549; A-549, SRB, 48 hours exposure): 9.28E-10
GI50 (A-549; A-549, SRB, 48 hours exposure): 0.348 nM
LC50 (concentration for 50% cell killing) (A-549; read-out: A-549 LC50, A-549, SRB, 48 hours exposure): 3.48 nM
Toxicity Data Liver (Liver): 1.57E-08
Toxicity Data Kidney (Kidney): 1.43E-08

COc1cc2c(cc1O)CCN(C)[C@]21CS[C@@H]2c3c(OC(C)=O)c(C)c4c(c3[C@H](COC1=O)N1C2[C@@H]2N[C@@H](Cc3cc(C)c(OC)c(O)c32)[C@@H]1C#N)OCO4 (some centres unmarked) [Compound 209]
GI50 (HT-29; SRB assay, 48 hours exposure): 0.0779 nM
LC50 (concentration for 50% cell killing) (HT-29; read-out: HT-29 LC50, SRB assay, 48 hours exposure): 1.17 nM
HT-29 TGI (HT-29; SRB assay, 48 hours exposure): 3.90E-10
LC50 (SW620): 1.3 nM
GI50 (SW620; SW-620, SRB assay): 0.0779 nM
SW-620 TGI (SW620; SRB assay): 3.90E-10
CC50 (MCF-7): 5.19 nM
GI50 (MCF-7; SRB assay): 0.26 nM
MCF TGI (MCF-7; SRB assay): 7.79E-10
CC50 (MDA-MB-231): 1.3 nM
GI50 (MDA-MB-231; SRB assay): 0.013 nM
MB-231 TGI (MDA-MB-231; SRB assay): 2.60E-10
LC50 (A-498): 1.3 nM
GI50 (A-498; SRB assay): 0.13 nM
A-498 TGI (A-498; SRB assay): 3.90E-10
GI50 (SK-MEL-28; SRB assay, 48 hours exposure): 0.0649 nM
CC50 (SK-MEL-28; read-out: MEL-28 LC50, SRB assay, 48 hours exposure): 1.3 nM
MEL-28 TGI (SK-MEL-28; SRB assay, 48 hours exposure): 2.60E-10
GI50 (DU-145; SRB assay, 48 hours exposure): 0.013 nM
CC50 (DU-145; read-out: DU-145 LC50, SRB assay, 48 hours exposure): 0.13 nM
DU-145 TGI (DU-145; SRB assay, 48 hours exposure): 3.90E-11
GI50 (A-549; SRB assay, 48 hours exposure): 0.0909 nM
LC50 (concentration for 50% cell killing) (A-549; read-out: A-549 LC50, SRB assay, 48 hours exposure): 1.17 nM
A-549 TGI (A-549; SRB assay, 48 hours exposure): 3.90E-10
